According to PubChem BioAssay AID1963854 (Molecular Pharmacology Branch, DTP, NCI, 2024):
Values joined by “and” are separate entries in the source; they are usually repeats but may differ in a detail not shown here. Equal entries are not always repeated.

Test system: 186277-243-T-J2-PDC complex spheroid viability
Assay: Anticancer human tumor 186277-243-T-J2-PDC patient-derived colon adenocarcinoma cell line growth inhibition [POLQ]
Details: for viability, T/C: stronger effect = lower value
Description: Multicellular complex tumor spheroid response to Polymerase (POL) inhibitors (novobiocin, ART-558, RP6685) in combination with a variety of drugs and investigational agents in selected tumor cell lines
The POL inhibitors (novobiocin, ART-558, and RP6685) were evaluated both individually and in combination with standard of care and investigational anticancer small molecules within a complex spheroid model of solid tumors. . Complex spheroids include a stromal component modeled by human endothelial cells (HUVEC) and fibroblasts modeled by human mesenchymal stem cells (MSCs). The concentration ranges selected for each drug and investigational agent were based upon clinically achievable concentrations if the clinical Cmax of the agent was known.
Compounds. The drugs and investigational agents: novobiocin (NSC847541), ART-558 (NSC835418), RP-6685 (NSC848927), peposertib (NSC802822), ceralasertib (NSC780249), elimusertib (NSC800525), camonsertib (NSC841442), AZD-1390 (NSC803789), olaparib (NSC753686), talazoparib (NSC767125), rucaparib (NSC756644), sotorasib (NSC818433), MRTX-1133 (NSC836407), SN-38 (NSC673596), topotecan (NSC609699), epotoside (NSC141540), doxorubicin (NSC123127), gemcitabine (NSC613327), 5-fluorouracil (NSC19893), paclitaxel (NSC125973), vemurafenib (NSC761431), MSA-2 (NSC828583), SN-011 (NSC837082), adavosertib (NSC754352), prexasertib (NSC758257), carboplatin (NSC241240) and oxaliplatin (NSC266046), were obtained from the National Cancer Institute (NCI) Developmental Therapeutics Program Chemical Repository (21). The FDA-approved anticancer drug set is available from the Developmental Therapeutics Program at https://dtp.cancer.gov/organization/dscb/obtaining/. […] The stock solutions were prepared in dimethyl sulfoxide (DMSO, Sigma-Aldrich, St. Louis, MO, cat. D2650), except for the platinum compounds which were prepared in saline (Quality Biological, Gaithersburg, MD, cat. 114-055-101), at 800-fold the tested concentration and stored at -70 degrees C prior to their use. All drugs and investigational agents were tested over a range starting from a high concentration at or near the clinical Cmax and decreasing in half-log increments. If the clinical Cmax for an agent had not been determined, the highest concentration tested was 10 microM, except for SN-38, which was tested at a high concentration of 1 microM.
Cell Culture. All cells were maintained in an incubator at 37 degrees C and 5% CO2 with 95% humidity. The PDC lines were cultured according to standard operating procedures established by the NCI PDMR (https://pdmr.cancer.gov). Table 3 of the manuscript, lists the cell lines along with the number of the three cell types plated to form the mct-spheroids and media for tumor cell growth. After thawing, all PDC lines, except 997537-175-T-J1-PDC and 415267-285-R-J2-PDC, were cultured in Matrigel-coated flasks prepared with a working solution of 1X Ham's F-12 nutrient mix, without supplementation (Thermo Fisher Scientific, cat. 11765054), 100 U/mL penicillin-streptomycin (Thermo Fisher Scientific, cat. 15140122), and 2.5% Matrigel (Corning Inc., Corning, NY, cat. 354248) for the first three passages. The two PDC lines 997537-175-T-J1-PDC and 415267-285-R-J2-PDC were cultured on uncoated flasks. The 857933-349-R-J2-PDC line was cultured in 6C/Colon 1B media containing advanced DMEM/F-12 (Thermo Fisher Scientific, cat. 12634028), 10 mM HEPES (Thermo Fisher Scientific, cat. 15630080), 1X GlutaMAX supplement (Thermo Fisher Scientific, cat. 35050061), 0.1 mg/mL primocin (InvivoGen, San Diego, CA, cat. ant-pm-2), 10% defined fetal bovine serum, heat inactivated (HyClone Laboratories Inc., Logan, UT, cat. SH30070.03HI), 50% L-WRN conditioned media (ATCC, cat. CRL-3276), 1.25 mM N-Acetyl-L-cysteine (Sigma-Aldrich, cat. A9165), 10 mM nicotinamide (Sigma-Aldrich, cat. N0636), 1X B-27 supplement (Thermo Fisher Scientific, cat. 17504044), 1X N-2 supplement (Thermo Fisher Scientific, cat. […]
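Also: spheroids exposed to compounds for seven days.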
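For viability, T/C in this document: 100% = DMSO vehicle control viability.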

For `CC1COCCN1c1cc(C2(O)CC3CCC(C2)O3)c2cnn(-c3ccn[nH]3)c2n1` (centres undefined) + COC1C(OC(N)=O)C(O)C(Oc2ccc3c(O)c(NC(=O)c4ccc(O)c(CC=C(C)C)c4)c(=O)oc3c2C)OC1(C)C, the IC50 (curve of first compound, second compound 0.0316 µM) was 37.5 nM, the IC50 (curve of first compound, second compound 0.1 µM) was 39.6 nM and the IC50 (curve of first compound, second compound 0.316 µM) was 40.3 nM. The IC50 (curve of first compound, second compound 1 µM) was 37.2 nM, the IC50 (curve of first compound, second compound 3.16 µM) was 41.8 nM and the IC50 (curve of first compound, second compound 10 µM) was < 31.6 nM. For the same compound, the viability, T/C (second compound 0.0316 µM, first compound 0.0316 µM) was 56.8%, the viability, T/C (second compound 0.0316 µM, first compound 0.1 µM) was 11% and the viability, T/C (second compound 0.0316 µM, first compound 0.316 µM) was 4.13%. The viability, T/C (second compound 0.0316 µM, first compound 1 µM) was 2.97%, the viability, T/C (second compound 0.0316 µM, first compound 3.16 µM) was 3.3% and the viability, T/C (second compound 0.0316 µM, first compound 10 µM) was 3.36%. The viability, T/C (second compound 0.1 µM, first compound 0.0316 µM) was 60%, the viability, T/C (second compound 0.1 µM, first compound 0.1 µM) was 8.95% and the viability, T/C (second compound 0.1 µM, first compound 0.316 µM) was 3.87%. For the same compound, the viability, T/C (second compound 0.1 µM, first compound 1 µM) was 2.7%, the viability, T/C (second compound 0.1 µM, first compound 3.16 µM) was 3.24% and the viability, T/C (second compound 0.1 µM, first compound 10 µM) was 3.18%. The viability, T/C (second compound 0.316 µM, first compound 0.0316 µM) was 60%, the viability, T/C (second compound 0.316 µM, first compound 0.1 µM) was 12.3% and the viability, T/C (second compound 0.316 µM, first compound 0.316 µM) was 4.98%. The viability, T/C (second compound 0.316 µM, first compound 1 µM) was 2.92%, the viability, T/C (second compound 0.316 µM, first compound 3.16 µM) was 3.45% and the viability, T/C (second compound 0.316 µM, first compound 10 µM) was 3.48%. The viability, T/C (second compound 1 µM, first compound 0.0316 µM) was 56.2%, the viability, T/C (second compound 1 µM, first compound 0.1 µM) was 12.9% and the viability, T/C (second compound 1 µM, first compound 0.316 µM) was 3.79%. For the same compound, the viability, T/C (second compound 1 µM, first compound 1 µM) was 2.66%, the viability, T/C (second compound 1 µM, first compound 3.16 µM) was 3.46% and the viability, T/C (second compound 1 µM, first compound 10 µM) was 3.76%. The viability, T/C (second compound 3.16 µM, first compound 0.0316 µM) was 63%, the viability, T/C (second compound 3.16 µM, first compound 0.1 µM) was 9.45% and the viability, T/C (second compound 3.16 µM, first compound 0.316 µM) was 4.01%. The viability, T/C (second compound 3.16 µM, first compound 1 µM) was 2.86%, the viability, T/C (second compound 3.16 µM, first compound 3.16 µM) was 3.33% and the viability, T/C (second compound 3.16 µM, first compound 10 µM) was 3.12%. For the same compound, the viability, T/C (second compound 10 µM, first compound 0.0316 µM) was 47.8%, the viability, T/C (second compound 10 µM, first compound 0.1 µM) was 7.48% and the viability, T/C (second compound 10 µM, first compound 0.316 µM) was 4.86%. For the same compound, the viability, T/C (second compound 10 µM, first compound 1 µM) was 2.78%, the viability, T/C (second compound 10 µM, first compound 3.16 µM) was 4.14% and the viability, T/C (second compound 10 µM, first compound 10 µM) was 3.73%.
With `CNCc1ccc(-c2[nH]c3cc(F)cc4c3c2CCNC4=O)cc1` the viability, T/C (compound 0.0316 µM) was 101% and 103% and 98.4%, the viability, T/C (compound 0.1 µM) was 108% and 122% and 93.3% and the viability, T/C (compound 0.316 µM) was 99.6% and 100% and 106%. The viability, T/C (compound 1 µM) was 97.1% and 93.2% and 108%, the viability, T/C (compound 3.16 µM) was 116% and 115% and 119% and the viability, T/C (compound 10 µM) was 93.5% and 116% and 103%. The IC50 (curve of compound) was > 10000 nM.
`COC1C(OC(N)=O)C(O)C(Oc2ccc3c(O)c(NC(=O)c4ccc(O)c(CC=C(C)C)c4)c(=O)oc3c2C)OC1(C)C` (centres undefined) was tested, and the viability, T/C (compound 0.0316 µM) was 99.1% [middle of 13 runs], the viability, T/C (compound 0.1 µM) was 97.7% [middle of 13 runs] and the viability, T/C (compound 0.316 µM) was 97.7% [middle of 13 runs]. The viability, T/C (compound 3.16 µM) was 103% [middle of 13 runs], the viability, T/C (compound 10 µM) was 92.6% [middle of 13 runs] and the IC50 (compound alone, run of 10/31/2023) was > 10000 nM.
`C#Cc1c(F)ccc2cc(O)cc(-c3ncc4c(N5CC6CCC(C5)N6)nc(OCC56CCCN5CC(F)C6)nc4c3F)c12` (centres undefined) was tested, and the viability, T/C (compound 0.0316 µM) was 85.1% and 95.6% and 68.7%, the viability, T/C (compound 0.1 µM) was 53.8% and 92.9% and 36.9% and the viability, T/C (compound 0.316 µM) was 20.1% and 56% and 19.9%. The viability, T/C (compound 1 µM) was 12% and 28% and 9.47%, the viability, T/C (compound 3.16 µM) was 7.06% and 18.8% and 5.67% and the viability, T/C (compound 10 µM) was 5.14% and 11.6% and 4.6%. The IC50 (curve of compound) was 113 nM and 427 nM and 62.6 nM.
For `C=CC(=O)N1CCN(c2nc(=O)n(-c3c(C)ccnc3C(C)C)c3nc(-c4c(O)cccc4F)c(F)cc23)C(C)C1` (centres undefined), the viability, T/C (compound 0.0316 µM) was 99.7% and 104% and 101%, the viability, T/C (compound 0.1 µM) was 93.3% and 94.9% and 105% and the viability, T/C (compound 0.316 µM) was 97.6% and 89.5% and 103%. For the same compound, the viability, T/C (compound 1 µM) was 96.6% and 85.6% and 99%, the viability, T/C (compound 3.16 µM) was 101% and 104% and 109% and the viability, T/C (compound 10 µM) was 103% and 95% and 93.3%. For the same compound, the IC50 (curve of compound) was > 10000 nM.
